Data set [1] is described as follows: Lipid clearance: % dose remaining, Tables 7c and 8b-8e (species not given). It is filed as in vivo. The text has this: In contrast, hEPO expression in rats induced by administration of a nanoparticle composition including a compound according to one of formulae (I), (Ia1)-(Ia6), (Ib), (II), (IIa), (III), and (IIIa) was substantially […] than that measured for MC3. […] Tables 7c and 7d show additional protein expressions and clearance data from compositions with various compounds disclosed herein as compared to with MC3. Tables 7e, 7f and 7g show hEPO expression data in CD-1 mice at a dose of 0.5 mpk.

The test system of the next data set is hEPO expression. Put plainly: hEPO (miR126 + miR142) mRNA expression, Tables 8b-8e. It is filed as in vivo.
Data set [2] in a line: Particle size and polydispersity index of nanoparticle compositions (Zetasizer Nano ZS). The class given is physicochemical. To be noted: Formulated with lipid:Chol:DOPE:PEG 1 40:38.5:20:1.5. On the procedure:
A Zetasizer Nano ZS (Malvem Instruments Ltd, Malvem, Worcestershire, UK) can be used to determine the particle size, the polydispersity index (PDI) and the zeta potential of the nanoparticle compositions in 1×PBS in determining particle size and 15 mM PBS in determining zeta potential.

Data set [3] is described as follows: Encapsulation efficiency of RNA (QUANT-IT RIBOGREEN RNA assay). It is filed as physicochemical. To be noted: Formulated with lipid:Chol:DOPE:PEG 1 40:38.5:20:1.5. The method in brief: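 RiboGreen fluorescence (ex about 480, em about 520 nm) compares nanoparticle samples left intact versus disrupted with 2% Triton X-100 (15 min, 37° C). Samples are first brought to roughly 5 μg/mL in 10 mM Tris-HCl, 1 mM EDTA, pH 7.5; percent free RNA equals the blank-corrected intact/disrupted signal ratio.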

Take `CCCCCCCCCN(CCCCCCCCC)CCCOCCCN(CCCCCCCCC)CCN(CCCCCCCCC)CCCCCCCCC` [Compound 161, N^1-(3-(3-(dinonylamino)propoxy)propyl)-N^1,N^2,N^2-trinonylethane-1,2-diamine]: the “% Dose Remaining (liver, 24 h)” value in data set [1] (Table 8c) turned out to be 113.64%. Also, the “AUC” value with hEPO expression (Table 8c) was determined as 128000 pg·h/mL. For the same molecule, in data set [2] (Table 1e), the PDI is on record as 0.17 and the “Size (nm)” value was found to be 61.8 nm. Moreover, the “EE (%)” value in data set [3] (Table 1e) was 97.8%.
For the molecule `CCCCCCCCCCNC(=O)CN(CCCCCCCCC)CCN(CCCCCCCCC)CCCCCCCCC` [Compound 162, N-decyl-2-((2-(dinonylamino)ethyl)(nonyl)amino)acetamide], the “% Dose Remaining (liver, 24 h)” value in data set [1] (Table 8c) worked out at 63.12%. The “AUC” value in the data set with hEPO expression (Table 8c) stood at 2.3e+07 pg·h/mL. Further, in data set [2] (Table 1e), the PDI is listed as 0.23 and the “Size (nm)” value is listed as 73.1 nm. Besides, the “EE (%)” value in data set [3] (Table 1e) is given as 98.4%.
As to `CCCCCCCCCCCCCCNC(=O)CN(CCCCCCCCC)CCN(CCCCCCCCC)CCCCCCCCC` [Compound 163, 2-((2-(dinonylamino)ethyl)(nonyl)amino)-N-tetradecylacetamide], the “% Dose Remaining (liver, 24 h)” value in data set [1] (Table 8c) was found to be 65.12%. Besides, in the data set with hEPO expression (Table 8c), the “AUC” value amounted to 1.01e+07 pg·h/mL. Also, in data set [2] (Table 1e), the PDI stood at 0.23 and the “Size (nm)” value turned out to be 88.6 nm. For the same molecule, in data set [3] (Table 1e), the “EE (%)” value was 98.1%.
Consider `CCCCCCCCCCN(CCCCCCCCCC)CCCCC(=O)N1CCN(C(=O)CCCCN(CCCCCCCCCC)CCCCCCCCCC)CC1` [Compound 164, 1,1′-(Piperazine-1,4-diyl)bis(5-(didecylamino)pentan-1-one)], for which, in data set [1] (Table 8c), the “% Dose Remaining (liver, 24 h)” value was determined as 40.18%. In addition, the “AUC” value with hEPO expression (Table 8c) came out at 4.09e+06 pg·h/mL. In data set [2] (Table 1e), the PDI is 0.15 and the “Size (nm)” value was 74.4 nm. The “EE (%)” value in data set [3] (Table 1e) was 97.7%.
Turning to `CCCCCCCCCN(CCCCCCCCC)CCN(CCCCCCCCC)CC(=O)NCCCCOC(=O)CCCC` [Compound 165, 4-(2-((2-(dinonylamino)ethyl)(nonyl)amino)acetamido)butyl pentanoate], the “% Dose Remaining (liver, 24 h)” value in data set [1] (Table 8c) is recorded as 0.13%. Also, in the data set with hEPO expression (Table 8c), the “AUC” value is 9.38e+07 pg·h/mL. In data set [2] (Table 1e), the PDI is recorded as 0.22 and the “Size (nm)” value stood at 107.8 nm. In addition, the “EE (%)” value in data set [3] (Table 1e) stood at 97.0%.
As for `CCCCCCCCCOC(=O)CN(CCCCCCCCC)CCN(CCCCCCCCC)CCCCCCCCC` [Compound 166, Nonyl N-(2-(dinonylamino)ethyl)-N-nonylglycinate], the “% Dose Remaining (liver, 24 h)” value in data set [1] (Table 8c) came to 75.26%. In the data set on hEPO expression (Table 8c), the “AUC” value stood at 0 pg·h/mL. Further, in data set [2] (Table 1e), the PDI is reported as 0.24 and the “Size (nm)” value amounted to 59.4 nm. The “EE (%)” value in data set [3] (Table 1e) is reported as 97.1%.
The matching figures for `CCCCCCCCCCCCCCOC(=O)CN(CCCCCCCCC)CCN(CCCCCCCCC)CCCCCCCCC` [Compound 167, Tetradecyl N-(2-(dinonylamino)ethyl)-N-nonylglycinate]: 89.60%, 0 pg·h/mL, 0.22, 64.5 nm and 97.6%.
In the same order, the values of `CCCCCCCCCN(CCCCCCCCC)CCN(CCCCCCCCC)CCOC(=O)CCCCCCCC` [Compound 168, 2-((2-(Dinonylamino)ethyl)(nonyl)amino)ethyl Nonanoate] are 2.74%, 0 pg·h/mL, 0.17, 60.0 nm and 97.3%.
With `CCCCCCCCCCCCCC(=O)OCCN(CCCCCCCCC)CCN(CCCCCCCCC)CCCCCCCCC` [Compound 169, 2-((2-(Dinonylamino)ethyl)(nonyl)amino)ethyl Tetradecanoate], in data set [1] (Table 8c), the “% Dose Remaining (liver, 24 h)” value is 0.30%. The “AUC” value in the data set on hEPO expression (Table 8c) was 0 pg·h/mL. In addition, in data set [2] (Table 1e), the PDI amounted to 0.24 and the “Size (nm)” value was 72.5 nm. The “EE (%)” value in data set [3] (Table 1e) is given as 97.6%.
As to `CCCCCCCCCOC(=O)CCCCCCCN(CCCCCCCC(=O)OC(CCCCCCCC)CCCCCCCC)CCCCC(=O)N(CC)CCN(CC)C(=O)CCCCN(CCCCCCCC(=O)OCCCCCCCCC)CCCCCCCC(=O)OC(CCCCCCCC)CCCCCCCC` [Compound 181, Di(heptadecan-9-yl) 15,18-diethyl-9,24-bis(8-(nonyloxy)-8-oxooctyl)-14,19-dioxo-9,15,18,24-tetraazadotriacontanedioate], the “% Dose Remaining (liver, 24 h)” value in data set [1] (Table 8d) came to 2.51%. In the data set with hEPO expression (Table 8d), the “AUC” value came out at 1.69e+08 pg·h/mL. In data set [2] (Table 1f), the PDI amounted to 0.25 and the “Size (nm)” value stood at 129.9 nm. Moreover, in data set [3] (Table 1f), the “EE (%)” value is listed as 97.7%.
The matching figures for `CCCCCCCCCOC(=O)CCCCCCCN(CCCCCCCC(=O)OC(CCCCCCCC)CCCCCCCC)CCCCC(=O)N(C)CCCN(C)C(=O)CCCCN(CCCCCCCC(=O)OCCCCCCCCC)CCCCCCCC(=O)OC(CCCCCCCC)CCCCCCCC` [Compound 182, Di(heptadecan-9-yl) 15,19-dimethyl-9,25-bis(8-(nonyloxy)-8-oxooctyl)-14,20-dioxo-9,15,19,25-tetraazatritriacontanedioate]: 1.64%, 6.06e+07 pg·h/mL, 0.28, 97.7 nm and 98.8%.
For the molecule `CCCCCCCCCOC(=O)CCCCCCCN(CCCCCCCC(=O)OC(CCCCCCCC)CCCCCCCC)CCCCC(=O)N(C)CCN(C)C(=O)CCCCN(CCCCCCCC(=O)OCCCCCCCCC)CCCCCCCC(=O)OC(CCCCCCCC)CCCCCCCC` [Compound 183, Di(heptadecan-9-yl) 15,18-dimethyl-9,24-bis(8-(nonyloxy)-8-oxooctyl)-14,19-dioxo-9,15,18,24-tetraazadotriacontanedioate], the “% Dose Remaining (liver, 24 h)” value in data set [1] (Table 8d) was 1.87%. Moreover, the “AUC” value in the data set with hEPO expression (Table 8d) stood at 6.53e+07 pg·h/mL. For the same molecule, in data set [2] (Table 1f), the PDI entry is given as “Multimodal” and the “Size (nm)” value came to 128.9 nm. In data set [3] (Table 1f), the “EE (%)” value is 99.1%.
The matching figures for `CCCCCCCCCOC(=O)CCCCCCCN(CCCCCCCC(=O)OC(CCCCCCCC)CCCCCCCC)CCCCC(=O)N1CCN(C(=O)CCCCN(CCCCCCCC(=O)OCCCCCCCCC)CCCCCCCC(=O)OC(CCCCCCCC)CCCCCCCC)CC1` [Compound 184, Di(heptadecan-9-yl) 8,8′-((piperazine-1,4-diylbis(5-oxopentane-5,1-diyl))bis((8-(nonyloxy)-8-oxooctyl)azanediyl))dioctanoate]: 2.23%, 4.21e+08 pg·h/mL, “Multimodal”, 107.6 nm and 99.1%.
The matching figures for `CCCCCCCCCOC(=O)CCCCCCCN(CCCCCCCC(=O)OC(CCCCCCCC)CCCCCCCC)CCCCC(=O)OCCOC(=O)CCCCN(CCCCCCCC(=O)OCCCCCCCCC)CCCCCCCC(=O)OC(CCCCCCCC)CCCCCCCC` [Compound 185, Di(heptadecan-9-yl) 8,8′-(11,24,29,42-tetraoxo-10,25,28,43-tetraoxa-19,34-diazadopentacontane-19,34-diyl)dioctanoate]: 18.21%, 2.23e+07 pg·h/mL, 0.27, 98.4 nm and 98.6%.
As to `CCCCCCCCCOC(=O)CCCCCCCN(CCCCCCCC(=O)OC(CCCCCCCC)CCCCCCCC)CCCCC(=O)OC(C)C(C)OC(=O)CCCCN(CCCCCCCC(=O)OCCCCCCCCC)CCCCCCCC(=O)OC(CCCCCCCC)CCCCCCCC` (stereo not shown) [Compound 186, Di(heptadecan-9-yl) 8,8′-(26,27-dimethyl-11,24,29,42-tetraoxo-10,25,28,43-tetraoxa-19,34-diazadopentacontane-19,34-diyl)dioctanoate], in data set [1] (Table 8d), the “% Dose Remaining (liver, 24 h)” value is 49.08%. Moreover, the “AUC” value with hEPO expression (Table 8d) came to 2.19e+07 pg·h/mL. In addition, in data set [2] (Table 1f), the PDI worked out at 0.21 and the “Size (nm)” value is 111.5 nm. Further, the “EE (%)” value in data set [3] (Table 1f) worked out at 98.2%.
Consider `CCCCCCCCCOC(=O)CCCCCCCN(CCCCCCCC(=O)OC(CCCCCCCC)CCCCCCCC)CCCCC(=O)OC(C)CC(C)OC(=O)CCCCN(CCCCCCCC(=O)OCCCCCCCCC)CCCCCCCC(=O)OC(CCCCCCCC)CCCCCCCC` (stereo not shown) [Compound 187, Di(heptadecan-9-yl) 8,8′-(26,28-dimethyl-11,24,30,43-tetraoxo-10,25,29,44-tetraoxa-19,35-diazatripentacontane-19,35-diyl)dioctanoate], for which the “% Dose Remaining (liver, 24 h)” value in data set [1] (Table 8d) was found to be 42.86%. For the same molecule, the “AUC” value in the data set on hEPO expression (Table 8d) is 5.22e+07 pg·h/mL. In data set [2] (Table 1f), the PDI was found to be 0.20 and the “Size (nm)” value is 126.0 nm. Moreover, the “EE (%)” value in data set [3] (Table 1f) turned out to be 98.5%.
Take `CCCCCCCCCN(CCCCCCCCC)CCN(CCCCCCCCC)CC(=O)OC(C)C(C)OC(=O)CN(CCCCCCCCC)CCCCCCCCC` (stereo not shown) [Compound 188, 3-((N-(2-(dinonylamino)ethyl)-N-nonylglycyl)oxy)butan-2-yl dinonylglycinate]: the “% Dose Remaining (liver, 24 h)” value in data set [1] (Table 8d) worked out at 117.31%. Further, the “AUC” value in the data set on hEPO expression (Table 8d) was 8.76e+06 pg·h/mL. Besides, in data set [2] (Table 1f), the PDI stood at 0.12 and the “Size (nm)” value was 78.0 nm. For the same molecule, in data set [3] (Table 1f), the “EE (%)” value was found to be 97.5%.

For the origin of these results see patent US12077501B2, “Compounds and compositions for intracellular delivery of agents” (ModernaTX, Inc., priority 2017, dated 2024).
